Reference: patent US10555987B2, “GHRH agonists for the treatment of ischemic disorders” (UNIVERSITY OF MIAMI, priority 2012, dated 2020)
Non-standard residues stand in square brackets, D forms with d. Residues, ends and D or L forms follow the SMILES beside them. *: point of attachment. Desaminotyrosyl = O=C(CCc1ccc(O)cc1)*; NMeY = CN[C@@H](Cc1ccc(O)cc1)C(=O)O; Agmatine = N=C(N)NCCCCN*; Nle = CCCC[C@H](N)C(=O)O; Orn = NCCC[C@H](N)C(=O)O; Abu = CC[C@H](N)C(=O)O; Ava = NCCCCC(=O)O

Experiments:
[1] = tested on: GH release; experiment: GH releasing potency in vivo, subcutaneous administration (Example 14, Table 12); parameters: species or system rat; details: s.c.; for Serum GH level at selected time after injection (ng/ml), 0 min / Serum GH level at selected time after injection (ng/ml), 15 min / Serum GH level at selected time after injection (ng/ml), 30 min: male rats, dose 3 μg/kg, mean ± SEM
Method: Male Sprague-Dawley rats, weighing 200-250 g, were purchased from Charles River Laboratory (Wilmington, Mass.) and used for experiments. All animal procedures were approved by the Veterans Affairs Animal Care and Use Committee and were conducted in accordance with additional institutional guidelines as well. Briefly, groups of 5-6 animals were used in each experiment. The rats were anesthetized with 50 mg/kg of sodium pentobarbital (Nembutal, Lundbeck Inc., Deerfield, Ill.). Twenty min after inducing anesthesia, GHRH(1-29)NH2, JI-38, or new analogs were injected into the animals intravenously (i.v.) or subcutaneously (s.c.). The peptides were dissolved in 0.01 M acetic acid to get 1 μg/μl stock solution, and then diluted with 5% mannitol. Control rats received 5% mannitol only. Blood samples were collected from the jugular vein at selected times and were used for serum preparation. Concentrations of GH in rat sera were determined by ELISA. The relative potencies of tested peptides were calculated using GHRH(1-29)NH2 and JI-38 for comparison, whose potency was defined as 1. The equivalent dosage of GHRH(1-29)NH2 to reach the same level of serum growth hormone release after injection of the specific tested peptide was determined from a GHRH(1-29)NH2 standard curve using Origin 6.0 software. […] Serum GH was determined using the rat Growth Hormone ELISA kit (ALPCO Diagnostics, Mill Valley, Calif.) according to the manufacturer's instruction. Absorbance at 405 nm was measured by a Victor 3 Multi-label Counter (Perkin-Elmer, Waltham, Md.).

[2] = target: T1, GHRH receptor (Homo sapiens, UniProt Q02643); experiment: GHRH receptor binding, competition with 125I-labeled JV-1-42, human pituitary membrane homogenates (Table 7); parameters: Normal human pituitaries were purchased from the National Hormone and Peptide Program; tissue National Hormone and Peptide Program (A.F. Parlow, Harbor-UCLA Medical Center, Torrance, Calif.); host or cells: normal human pituitary, membrane fraction; details: for Relative affinity (Binding potency) vs JI-38: JI-38 = 1, Table 7
T1 sequence (Q02643 23-423): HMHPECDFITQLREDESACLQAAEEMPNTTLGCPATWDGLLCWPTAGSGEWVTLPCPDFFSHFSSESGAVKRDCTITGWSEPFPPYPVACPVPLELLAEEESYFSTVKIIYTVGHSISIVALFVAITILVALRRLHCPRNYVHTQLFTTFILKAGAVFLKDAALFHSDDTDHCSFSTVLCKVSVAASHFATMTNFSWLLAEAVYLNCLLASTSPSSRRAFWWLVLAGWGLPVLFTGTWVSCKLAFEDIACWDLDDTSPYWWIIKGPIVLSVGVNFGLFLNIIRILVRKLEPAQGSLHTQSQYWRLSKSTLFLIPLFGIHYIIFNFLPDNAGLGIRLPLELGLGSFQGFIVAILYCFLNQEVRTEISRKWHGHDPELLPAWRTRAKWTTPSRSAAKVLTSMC
From the text: Normal human pituitaries were purchased from the National Hormone and Peptide Program (A.F. Parlow, Los Angeles, County Harbor-UCLA Medical Center, Torrance, Calif.).

[3] = tested on: GH release; experiment: In vivo endocrine activity, GH release after subcutaneous administration (Table 9); details: rat, subcutaneous (s.c.) injection
Method: Subcutaneous Administration. Adult male rats were used and anesthetized with pentobarbital (6 mg/100 g, b.w.), by i.p. injection. […] Blood samples were taken from the jugular vein 5, 15 and/or 30 minutes after the injection. The blood samples were centrifuged, plasma was removed and the GH level was measured byELISA. The results are summarized in terms of potency in Table 9.

[4] = target: T1, GHRH receptor; experiment: Receptor binding in vitro, 125I-labeled [His1,Nle27]-hGHRH(1-32)NH2, membrane receptors of human anterior pituitary cells (Table 14); details: for Relative affinity (Binding potency) compared to JI-38: JI-38 = 1; for Relative affinity (Binding potency) compared to hGHRH(1-29): hGHRH(1-29)NH2 = 1
From the text: Normal human pituitary was purchased from the National Hormone and Peptide Program (UCLA Medical Center, Torrance, Calif.).

Row | SMILES | Serum GH level at selected time after injection (ng/ml), 0 min [1] | Serum GH level at selected time after injection (ng/ml), 15 min [1] | Serum GH level at selected time after injection (ng/ml), 30 min [1] | GH-releasing potency after s.c. administration (in words) [1] | Relative potency compared to GHRH(1-29), 15 min [1] | Relative potency compared to JI-38, 15 min [1] | Relative potency compared to GHRH(1-29), 30 min [1] | Relative potency compared to JI-38, 30 min [1] | IC50 ([2]; 125I-JV-1-42, human pituitary membranes, Table 7) | Relative affinity (Binding potency) vs JI-38 [2] | GH releasing potency relative to JI-38 (=1) ([3]; 15 min after) | GH releasing potency relative to JI-38 (=1) ([3]; 30 min after) | Relative affinity (Binding potency) compared to JI-38 [4] | GHRH receptor binding affinity (in words) ([4]; compared to JI-38) | Relative affinity (Binding potency) compared to hGHRH(1-29) [4]
1 | CCCC[C@H](NC(=O)[C@@H](NC(=O)[C@H](CC(=O)O)NC(=O)[C@H](CCC(N)=O)NC(=O)[C@H](CC(C)C)NC(=O)[C@H](CC(C)C)NC(=O)[C@H](CCCN)NC(=O)[C@H](CCCNC(=N)N)NC(=O)[C@H](C)NC(=O)[C@H](CO)NC(=O)[C@H](CC(C)C)NC(=O)[C@H](CCC(N)=O)NC(=O)[C@H](CC)NC(=O)[C@H](CC(C)C)NC(=O)[C@@H](NC(=O)[C@H](CCCN)NC(=O)[C@H](CCCNC(=N)N)NC(=O)[C@H](Cc1ccc(O)cc1)NC(=O)[C@H](CO)NC(=O)[C@H](CCC(N)=O)NC(=O)[C@@H](NC(=O)[C@H](Cc1ccccc1)NC(=O)[C@@H](NC(=O)[C@H](C)NC(=O)[C@H](CC(=O)O)NC(=O)[C@@H](C)NC(=O)[C@H](Cc1ccc(O)cc1)N(C)C(C)=O)[C@@H](C)CC)[C@@H](C)O)C(C)C)[C@@H](C)CC)C(=O)N[C@@H](CC(=O)O)C(=O)NCCCCNC(=N)N [Peptide P-20351, [Ac—N—Me-Tyr^1, D-Ala^2, Gln^8, Orn^12, Abu^15, Orn^21, Nle^27, Asp^28, Agm^29] hGHRH(1-29)NH2] (Ac-[NMeY][dA]DAIFTQSYR[Orn]VL[Abu]QLSAR[Orn]LLQDI[Nle]D-Agmatine) | 30.6 ± 7.2 ng/mL | 90.8 ± 20.3 ng/mL | 65.4 ± 10.1 ng/mL | weaker GH-releasing potency | 18.8 | 0.30 | 33.6 | 0.30 | 3.44 nM | 1.26 | 0.38 | 0.44 | 0.71 | weaker GH-releasing potency and GH receptor binding affinity | 1.98
2 | CCCC[C@H](NC(=O)[C@@H](NC(=O)[C@H](CC(=O)O)NC(=O)[C@H](CCC(N)=O)NC(=O)[C@H](CC(C)C)NC(=O)[C@H](CC(C)C)NC(=O)[C@H](CCCN)NC(=O)[C@H](CCCNC(=N)N)NC(=O)[C@H](C)NC(=O)[C@H](CO)NC(=O)[C@H](CC(C)C)NC(=O)[C@H](CCC(N)=O)NC(=O)[C@H](CC)NC(=O)[C@H](CC(C)C)NC(=O)[C@@H](NC(=O)[C@H](CCCN)NC(=O)[C@H](CCCNC(=N)N)NC(=O)[C@H](Cc1ccc(O)cc1)NC(=O)[C@H](CO)NC(=O)[C@H](CCC(N)=O)NC(=O)[C@@H](NC(=O)[C@H](Cc1ccccc1)NC(=O)[C@@H](NC(=O)[C@H](C)NC(=O)[C@H](CC(=O)O)NC(=O)[C@H](C)NC(=O)CCc1ccc(O)cc1)[C@@H](C)CC)[C@@H](C)O)C(C)C)[C@@H](C)CC)C(=O)N[C@@H](CC(=O)O)C(=O)N[C@@H](CCCNC(=N)N)C(=O)NCCCCC(N)=O [Peptide P-22327, [Dat^1, Gln^8, Orn^12, Abu^15, Orn^21, Nle^27, Asp^28, Apa^30]hGHRH(1-30)NH2] (Desaminotyrosyl-ADAIFTQSYR[Orn]VL[Abu]QLSAR[Orn]LLQDI[Nle]DR[Ava]-NH2) | 31.5 ± 3.4 ng/mL | 258.7 ± 31.1 ng/mL | 138 ± 27.9 ng/mL |  | 73.5 | 1.16 | 126.5 | 1.16 |  | 2.18 | 1.15 | 1.30 | 1.34 |  | 3.75
